Results: US20260144829A1, “SYNBIOTIC COMPOSITION, METABOLITES, AND METHOD OF PREVENTING AND TREATING OBESITY-RELATED DISEASE” (priority 2023, published 2026)
“Also recorded” adds a separate entry of the source. Residues, ends and D or L forms follow the SMILES beside them.

System: HepG2 cells
Assay: Lipid accumulation assay in uric acid-treated HepG2 cells
Format: cell-based
Conditions: 120 μg/mL uric acid, 24 hours
Protocol: The lipid accumulation assay was done. Briefly, HepG2 cells at 70% confluence were incubated in RPMI 1640 medium containing 120 μg/mL uric acid for 24 hours, which was used to increase the lipid accumulation. After being washed by PBS buffer, the cells were maintained in new RPMI 1640 medium containing the metabolites (5.0, 1.0, 0.5, 0.1, and 0.05 μg/mL, the dried metabolites were redissolved in RPMI 164 medium) and 120 μg/mL uric acid for another 24 hours. Cells maintained in pure RPMI 1640 medium were employed as control.
To further identify bioactive metabolites produced by B. longum, we applied a fractionation approach followed by liquid chromatography-mass spectrometry (LC-MS) coupled with in vitro screening strategy (FIG. 2A). Briefly, the extraction method of B. longum BCRC12585 metabolites (that is, B. longum metabolites, or B. longum crude extract) is the same as in Example 2, and then twenty-five fractions derived from B. longum metabolites were prepared by pre-HPLC column, followed by individually testing the anti-lipid accumulation activity with HepG2 cells. […] To identify candidate metabolites from each active fraction, further analysis was performed by using liquid chromatography coupled with high resolution mass spectrometry (LC-MS/MS). […] Collectively, we integrated in vitro, in vivo, and metabolomics data to identify the bioactive metabolites which could be produced by B. longum.

Row | Compound | lipid accumulation in HepG2 cells
1 | N[C@@H](CCC(=O)O)C(=O)O [GA, glutamic acid] | significantly inhibited
2 | Nc1ncnc2c1ncn2[C@@H]1O[C@H](CO)[C@@H](OP(=O)(O)O)[C@H]1O [3-AMPP, 3-adenosine monophosphate] | significantly inhibited
3 | CC(C)[C@H](N)C(=O)O [valine] | significantly inhibited
4 | CC(C)[C@H](NC(=O)[C@@H]1CCC(=O)N1)C(=O)O [Pyro-glu-val, pyro-glutamyl-valine] (HELM PEPTIDE1{[Glp].V}$$$$V2.0) | significantly inhibited
5 | CSCC[C@H](N)C(=O)O [methionine] | significantly inhibited; also recorded: exhibited a lipid-lowering effect
6 | Nc1ncnc2c1ncn2[C@@H]1O[C@H](CO)[C@@H](O)[C@H]1O [adenosine] | significantly inhibited
7 | O=C1CC[C@@H](C(=O)O)N1 [PyroGA, pyroglutamic acid] | significantly inhibited

System: hepatic gene expression
Assay: Hepatic RNA-sequencing of treated mice
Format: in vivo
Conditions: liver
Protocol: To obtain a more comprehensive understanding of MTA's potential as an antiobesity molecule, hepatic RNA-sequencing was performed on mice treated with both MTA and B. longum to determine its underlying mechanism for preventing obesity. […] Then, we conducted an in-depth analysis of the regulated genes involved in these biological functions. […] Likewise, overexpression of inhibin beta-A, which is encoded by the Inhba gene, can stimulate mitochondrial energy metabolism and increase energy expenditure.
Bile acids are regarded as important signaling molecules to regulate fatty acid, cholesterol, energy and glucose homeostasis; therefore, enhancing bile acid synthesis may be a strategy to avoid diet-induced obesity. Furthermore, the increased expression of Cyp7a1, which encodes the rate-limiting enzyme in the classic bile acid synthesis pathway, prevents high-fat diet-induced obesity, insulin resistance and atherosclerosis.

Row | expression of Cyp7a1 | Compound
8 | up-regulated | CSC[C@H]1O[C@@H](n2cnc3c(N)ncnc32)[C@H](O)[C@@H]1O [MTA, 5′-s-methyl-5′-thioadenosine]
